Experiments:
progestin receptor (rPR) = target: T1, progestin receptor (rPR) (Oryctolagus cuniculus, UniProt P06186); assay: Receptor binding (rabbit), progestin receptor; settings: for Ratio PR/GR: ratio of rPR to rGR relative affinities; for Relative Binding Affinity, rPR, Relative Affinity (Progesterone): relative to progesterone = 100, rabbit progestin receptor
T1 construct: hormone receptors for progestins and glucocorticoids from rabbits; from tissue; host or cells: rabbit
T1 sequence (P06186 1-930): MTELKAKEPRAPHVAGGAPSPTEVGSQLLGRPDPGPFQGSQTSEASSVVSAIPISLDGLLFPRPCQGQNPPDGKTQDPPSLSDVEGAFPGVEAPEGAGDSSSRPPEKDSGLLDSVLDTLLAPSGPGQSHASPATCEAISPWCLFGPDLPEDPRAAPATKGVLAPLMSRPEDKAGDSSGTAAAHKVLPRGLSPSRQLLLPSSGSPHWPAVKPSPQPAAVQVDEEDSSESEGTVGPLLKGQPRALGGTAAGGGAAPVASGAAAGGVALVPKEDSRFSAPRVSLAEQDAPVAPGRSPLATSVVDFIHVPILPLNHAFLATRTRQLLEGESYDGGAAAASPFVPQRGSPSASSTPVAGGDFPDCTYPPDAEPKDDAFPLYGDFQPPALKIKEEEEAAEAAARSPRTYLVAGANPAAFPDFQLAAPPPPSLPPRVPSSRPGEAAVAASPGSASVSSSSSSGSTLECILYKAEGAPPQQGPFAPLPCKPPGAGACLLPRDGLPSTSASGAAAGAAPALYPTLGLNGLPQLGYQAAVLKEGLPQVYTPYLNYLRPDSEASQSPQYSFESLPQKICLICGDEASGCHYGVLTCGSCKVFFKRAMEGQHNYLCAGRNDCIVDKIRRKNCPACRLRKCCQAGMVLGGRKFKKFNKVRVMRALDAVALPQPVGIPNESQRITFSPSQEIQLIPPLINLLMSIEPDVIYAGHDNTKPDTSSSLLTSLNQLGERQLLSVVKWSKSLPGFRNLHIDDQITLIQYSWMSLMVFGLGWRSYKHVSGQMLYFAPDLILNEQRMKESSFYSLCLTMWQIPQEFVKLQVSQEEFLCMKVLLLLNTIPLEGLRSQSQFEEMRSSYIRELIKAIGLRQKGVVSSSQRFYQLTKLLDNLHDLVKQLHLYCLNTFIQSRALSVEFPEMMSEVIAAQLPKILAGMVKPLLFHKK

[1] = target: T2, glucocorticoid receptor (rGR) (Oryctolagus cuniculus, UniProt P59667); assay: Receptor binding (rabbit), glucocorticoid receptor; settings: relative to dexamethasone = 100
T2 construct: the source of the glucocorticoid receptor was the thymus of the estrogen-primed immature female rabbit; from tissue; host or cells: thymus of the estrogen-primed immature female rabbit
T2 sequence (P59667 1-772): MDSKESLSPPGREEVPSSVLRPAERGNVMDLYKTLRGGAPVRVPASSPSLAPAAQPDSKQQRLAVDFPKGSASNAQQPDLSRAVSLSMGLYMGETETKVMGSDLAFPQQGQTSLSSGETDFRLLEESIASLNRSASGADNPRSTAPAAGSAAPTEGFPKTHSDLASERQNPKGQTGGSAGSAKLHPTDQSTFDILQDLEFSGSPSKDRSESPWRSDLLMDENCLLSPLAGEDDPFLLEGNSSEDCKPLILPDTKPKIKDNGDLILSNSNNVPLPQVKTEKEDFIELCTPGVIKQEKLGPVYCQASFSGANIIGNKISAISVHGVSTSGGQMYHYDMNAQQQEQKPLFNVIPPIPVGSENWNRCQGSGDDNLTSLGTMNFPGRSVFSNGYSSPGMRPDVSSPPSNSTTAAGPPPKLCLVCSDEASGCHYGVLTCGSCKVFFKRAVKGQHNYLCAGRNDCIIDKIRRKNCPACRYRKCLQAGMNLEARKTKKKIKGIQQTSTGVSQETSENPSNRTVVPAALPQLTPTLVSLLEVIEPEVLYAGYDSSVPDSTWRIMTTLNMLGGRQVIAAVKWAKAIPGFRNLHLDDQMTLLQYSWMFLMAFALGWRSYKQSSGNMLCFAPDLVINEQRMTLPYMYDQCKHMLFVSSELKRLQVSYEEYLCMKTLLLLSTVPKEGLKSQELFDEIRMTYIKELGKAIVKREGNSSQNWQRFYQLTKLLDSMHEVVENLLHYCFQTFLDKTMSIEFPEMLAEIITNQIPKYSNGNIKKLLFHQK
Experimental: The affinity of the compounds for hormone receptors for progestins and glucocorticoids from rabbits was determined by standard procedures similar to those that have been described in C. E. Cook, et al., Human Reproduction, Volume 9, supplement 1, pp. 32-39 (1994). However, the source of the glucocorticoid receptor was the thymus of the estrogen-primed immature female rabbit. The affinity of the compounds for the human progesterone hormone receptor was determined by standard procedures similar to those that have been described in Horwitz, et al., Cell, 28: 633-42 (1982) and Mockus, et al., Endocrinology, 110: 1564-71 (1982). The receptor was obtained in cytosol from human T-47D breast cells and [^3 H]-R5020 was used as the radioligand. T47D cells (1 billion/mL) were homogenized in TEDG buffer (10 mM Tris, 1.5 mM EDTA, 1 mM dithiothreitol, 1 mM sodium molybdate, and 10% glycerol) using a Dounce pestle A, and the homogenate was centrifuged at 34,000×g for 1 hour. The supernatant was stored at -80° C. An aliquot of receptor preparation was combined with test compound, 0.4 nM [^3 H]-R5020, and TEDG buffer to a final volume of 150 ,μL and incubated for 4 hours at 4° C. in microtiter plates. At the end of incubation 40 μL 40% polyethylene glycol and 15 μL 1% human gamma globulin was added to the incubate and the contents of each well were harvested onto double thick B filter mats (Wallac LKB) using a TomTec harvester. A film of Meltilux scintillant wax was applied to the dried filter mats and the mats were counted in a scintillation counter to determine inhibition of [^3 H]-R5020 binding. Data are expressed as lC50 values, i.e., the concentration of compound that inhibits radioligand binding by 50%.

CC1=[N+]([O-])C2(CC1)CCC1C3CCC4=CC(=O)CCC4=C3C(c3ccc(N(C)C)cc3)CC12C (stereo not drawn) [II 4-Me2 N H O H -- CH3, 3',4'-dihydro-11β-(4-(N,N-dimethylamino)phenyl)-5'-methyl-1'-oxo-spiro[estra-4,9-dien-17β,2'(2'H)-pyrrole]-3-one]
separation of progestin and glucocorticoid receptor affinity (progestin receptor (rPR); in words): excellent separation of progestin and glucocorticoid receptor affinity | Ratio PR/GR (progestin receptor (rPR)): 78.5 | Relative Binding Affinity, rPR, Relative Affinity (Progesterone) (progestin receptor (rPR)): 157 | Relative Binding Affinity, rGR, Relative Affinity (Dexamethasone) [1]: 2

CN(C)c1ccc([C@H]2C[C@@]3(C)[C@@H](CC[C@]3(CCCO)[N+](=O)[O-])[C@@H]3CCC4=CC(=O)CCC4=C32)cc1 [I 4-Me2 N H O H --(CH2)3 OH, 11β-[4-(N,N-Dimethylamino)phenyl]-17α-(3-hydroxypropyl)-17β-nitroestra-4,9-dien-3-one]
Ratio PR/GR (progestin receptor (rPR)): 2.3 | Relative Binding Affinity, rPR, Relative Affinity (Progesterone) (progestin receptor (rPR)): 170 | Relative Binding Affinity, rGR, Relative Affinity (Dexamethasone) [1]: 74

CC(=O)c1ccc([C@H]2C[C@@]3(C)[C@@H](CC[C@]3(/C=C/CO)[N+](=O)[O-])[C@@H]3CCC4=CC(=O)CCC4=C32)cc1 [I 4-CH3 CO H O H CH=CHCH2 OH, 11β-(4-acetylphenyl)-17α-(E-3-hydroxy-1-propenyl)-17β-nitroestra-4,9-dien-3-one]
Ratio PR/GR (progestin receptor (rPR)): 6.5 | Relative Binding Affinity, rPR, Relative Affinity (Progesterone) (progestin receptor (rPR)): 26 | Relative Binding Affinity, rGR, Relative Affinity (Dexamethasone) [1]: 4

CC#C[C@]1([N+](=O)[O-])CC[C@H]2[C@@H]3CCC4=CC(=O)CCC4=C3[C@@H](c3ccc(C(C)=O)cc3)C[C@@]21C [I 4-CH3 CO H O H --CC--CH3, 11β-(4-Acetylphenyl)-17β-nitro-17α-(1-propynyl)estra-4,9-dien-3-one]
Ratio PR/GR (progestin receptor (rPR)): 7.7 | Relative Binding Affinity, rPR, Relative Affinity (Progesterone) (progestin receptor (rPR)): 153 | Relative Binding Affinity, rGR, Relative Affinity (Dexamethasone) [1]: 20

CC(=O)c1ccc([C@H]2C[C@@]3(C)[C@@H](CC[C@]3(CCCO)[N+](=O)[O-])[C@@H]3CCC4=CC(=O)CCC4=C32)cc1 [I 4-CH3 CO H O H --(CH2)3 OH, 11β-(4-Acetylphenyl)-17α-(3-hydroxypropyl)-17β-nitroestra-4,9-dien-3-one]
Ratio PR/GR (progestin receptor (rPR)): 17.7 | Relative Binding Affinity, rPR, Relative Affinity (Progesterone) (progestin receptor (rPR)): 53 | Relative Binding Affinity, rGR, Relative Affinity (Dexamethasone) [1]: 3

Reference: US6015805A, “17β-nitro-11β-arylisteroids and their derivatives having agonist or antagonist hormonal properties” (Research Triangle Research North Carolina, priority 1999, dated 2000)
